Experiments:
EGFR = EGFR (UniProt P00533)
EGFR (murine) [1] = biological target: EGFR (murine) (UniProt P00533); conditions: nih3t3/c7
EGFR (murine) [2] = biological target: EGFR (murine) (UniProt P00533); conditions: 3t3

EGFR (murine), sequence (P00533 whole entry, looked up): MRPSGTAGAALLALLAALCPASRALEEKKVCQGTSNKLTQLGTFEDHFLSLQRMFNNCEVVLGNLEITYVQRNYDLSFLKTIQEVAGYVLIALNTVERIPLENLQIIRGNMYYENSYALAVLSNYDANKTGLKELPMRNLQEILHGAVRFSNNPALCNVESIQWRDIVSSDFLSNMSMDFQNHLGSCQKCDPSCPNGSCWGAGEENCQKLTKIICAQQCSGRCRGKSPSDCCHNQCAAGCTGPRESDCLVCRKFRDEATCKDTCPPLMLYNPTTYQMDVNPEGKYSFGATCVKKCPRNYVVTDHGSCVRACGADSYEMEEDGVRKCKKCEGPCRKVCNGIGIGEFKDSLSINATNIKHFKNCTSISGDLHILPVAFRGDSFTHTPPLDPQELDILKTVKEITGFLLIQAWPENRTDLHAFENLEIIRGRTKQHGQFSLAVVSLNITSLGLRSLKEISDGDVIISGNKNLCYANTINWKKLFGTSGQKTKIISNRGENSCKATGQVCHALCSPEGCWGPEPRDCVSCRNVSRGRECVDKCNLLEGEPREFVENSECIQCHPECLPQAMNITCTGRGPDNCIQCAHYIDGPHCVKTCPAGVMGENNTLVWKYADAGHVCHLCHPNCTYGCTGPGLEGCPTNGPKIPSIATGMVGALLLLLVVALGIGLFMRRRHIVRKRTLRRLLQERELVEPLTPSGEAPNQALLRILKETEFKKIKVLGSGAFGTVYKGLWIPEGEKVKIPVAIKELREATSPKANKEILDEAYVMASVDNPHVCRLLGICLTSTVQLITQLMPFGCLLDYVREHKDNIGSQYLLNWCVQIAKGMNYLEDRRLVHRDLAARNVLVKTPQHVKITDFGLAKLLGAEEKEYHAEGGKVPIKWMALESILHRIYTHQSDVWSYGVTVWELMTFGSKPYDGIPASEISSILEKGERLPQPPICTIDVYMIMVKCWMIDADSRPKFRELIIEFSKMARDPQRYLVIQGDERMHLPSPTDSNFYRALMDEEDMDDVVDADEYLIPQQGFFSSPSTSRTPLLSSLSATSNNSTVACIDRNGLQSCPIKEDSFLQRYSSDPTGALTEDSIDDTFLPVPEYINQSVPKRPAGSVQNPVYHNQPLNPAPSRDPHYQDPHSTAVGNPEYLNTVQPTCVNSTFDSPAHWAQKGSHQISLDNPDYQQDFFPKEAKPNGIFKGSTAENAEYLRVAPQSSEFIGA
EGFR, sequence (P00533 whole entry, looked up): as above

| SMILES | IC50 (EGFR) | IC50 (EGFR (murine) [1]) | IC50 (EGFR (murine) [2]) |
| --- | --- | --- | --- |
| Cc1[nH]c2ccccc2c1/C=C1\C(=O)Nc2ccc(S(=O)(=O)N(C)C)cc21 | > 100 µM | > 100 µM |  |
| O=C(O)CCc1c(/C=C2\C(=O)Nc3ccc(Br)cc32)[nH]c2c1CCCC2 | > 100 µM | > 100 µM |  |
| O=C(O)CCc1c(/C=C2\C(=O)Nc3ccccc32)[nH]c2c1CCCC2 | > 100 µM |  |  |
| CNS(=O)(=O)c1ccc2c(c1)/C(=C/c1ccc3[nH]ccc3c1)C(=O)N2 | > 100 µM | > 100 µM |  |
| CNS(=O)(=O)c1ccc2c(c1)/C(=C/c1c(C)[nH]c3ccccc13)C(=O)N2 | > 100 µM | > 100 µM |  |
| Cc1c[nH]c(/C=C2\C(=O)Nc3cccc(C)c32)c1CCC(=O)O | > 100 µM |  |  |
| CCOC(=O)c1[nH]c(/C=C2\C(=O)Nc3ccccc32)c(CCC(=O)O)c1C | > 100 µM |  |  |
| CCOc1cccc(-c2ccc3c(c2)NC(=O)/C3=C\c2[nH]cc(C)c2CCC(=O)O)c1 | > 100 µM |  |  |
| COc1ccc(-c2ccc3c(c2)NC(=O)/C3=C\c2[nH]c3c(c2CCC(=O)O)CCCC3)cc1 |  | > 100 µM |  |
| CN(C)S(=O)(=O)c1ccc2c(c1)/C(=C/c1ccc3[nH]ccc3c1)C(=O)N2 | > 100 µM | > 100 µM |  |
| CC(=O)Nc1ccc2c(c1)NC(=O)/C2=C/c1ccc(OCCN2CCOCC2)cc1-c1cccs1 | > 100 µM | 79 µM | 28.6 µM |
| NS(=O)(=O)c1ccc2c(c1)/C(=C/c1ccc3[nH]ccc3c1)C(=O)N2 | > 100 µM | > 100 µM |  |

Further lines, results first:

| IC50 (EGFR) | IC50 (EGFR (murine) [1]) | IC50 (EGFR (murine) [2]) | SMILES |
| --- | --- | --- | --- |
| > 100 µM | > 100 µM |  | CNS(=O)(=O)c1ccc2c(c1)/C(=C/c1c[nH]c3ccccc13)C(=O)N2 |
| > 100 µM | > 100 µM |  | COc1ccccc1-c1ccc2c(c1)NC(=O)/C2=C\c1[nH]c2c(c1CCC(=O)O)CCCC2 |
| > 100 µM |  |  | COc1ccc2c(c1)NC(=O)/C2=C\c1[nH]c2c(c1CCC(=O)O)CCCC2 |
| > 100 µM | > 100 µM |  | CN(C)S(=O)(=O)c1ccc2c(c1)/C(=C/c1c[nH]c3ccccc13)C(=O)N2 |
| > 100 µM | > 100 µM |  | Cc1[nH]c2ccccc2c1/C=C1\C(=O)Nc2ccc(S(N)(=O)=O)cc21 |
| > 100 µM | > 100 µM |  | CN(C)S(=O)(=O)c1ccc2c(c1)/C(=C/c1cc3ccccc3[nH]1)C(=O)N2 |
| > 100 µM | > 100 µM |  | O=C(O)CCc1c(/C=C2\C(=O)Nc3cc(-c4ccccc4)ccc32)[nH]c2c1CCCC2 |

From the Kinase Knowledgebase extract (Sharma et al. 2016)
